Assays:
[1] = system: surinam grass; experiment: Test B pre/postemergence surinam grass; type: in vivo, Brachiaria decumbens
Method in brief: (§1)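 Test chemicals in a non-phytotoxic solvent mixture with surfactant were sprayed preemergence onto planted seeds and postemergence onto plants 2 to 18 cm tall (1- to 4-leaf stage). After twelve to sixteen days in a greenhouse, injury was visually rated against untreated controls from 0 (no effect) to 10 (complete control).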

[2] = system: velvetleaf; experiment: Test B pre/postemergence velvetleaf; type: in vivo, Abutilon theophrasti
Method in brief: as §1

[3] = system: bamyardgrass; experiment: Test B flood test barnyardgrass; type: in vivo, Echinochloa crus-galli
Method in brief: (§2)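 Each value is a visual injury score relative to controls, with 10 meaning complete control and 0 no effect. Evaluation took place twelve to sixteen days after the 2-leaf-stage plants were treated and kept in the greenhouse.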

[4] = system: soybean; experiment: Test B pre/postemergence soybean; type: in vivo, Glycine max
Method in brief: as §1

[5] = system: giant foxtail; experiment: Test B pre/postemergence giant foxtail; type: in vivo, Setaria faberii
Method in brief: as §1

[6] = system: wild oat; experiment: Test B pre/postemergence wild oat; type: in vivo, Avena fatua
Method in brief: as §1

[7] = system: crabgrass; experiment: Test B pre/postemergence crabgrass; type: in vivo, Digitaria sanguinalis
Method in brief: as §1

[8] = system: blackgrass; experiment: Test B pre/postemergence blackgrass; type: in vivo, Alopecurus myosuroides
Method in brief: as §1

[9] = system: bedstraw; experiment: Test B pre/postemergence bedstraw; type: in vivo, Galium aparine
Method in brief: as §1

[10] = system: purple nutsedge; experiment: Test B pre/postemergence purple nutsedge; type: in vivo, Cyperus rotundus
Method in brief: as §1

[11] = system: corn; experiment: Test B pre/postemergence corn; type: in vivo, Zea mays
Method in brief: as §1

[12] = system: smallflower flatsedge; experiment: Test B flood test smallflower flatsedge; type: in vivo, Cyperus difformis
Method in brief: as §2

[13] = system: morningglory; experiment: Test B pre/postemergence morningglory; type: in vivo, Ipomoea hederacea
Method in brief: as §1

[14] = system: cocklebur; experiment: Test B pre/postemergence cocklebur; type: in vivo, Xanthium strumarium
Method in brief: as §1

[15] = system: rice; experiment: Test B flood test rice; type: in vivo, Oryza sativa
Method in brief: as §2

[16] = system: duck salad; experiment: Test B flood test duck salad; type: in vivo, Heteranthera limosa
Method in brief: as §2

[17] = system: wheat; experiment: Test B pre/postemergence wheat; type: in vivo, Triticum aestivum
Method in brief: as §1

[18] = Postemergence, Rate 125 g/ha, scale 0 to 10, 0 is no effect, 10 is complete control
[19] = Preemergence, Rate 62 g/ha, scale of 0 to 10 where 0 is no effect and 10 is complete control
[20] = Preemergence, Rate 250 g/ha, scale of 0 to 10 where 0 is no effect and 10 is complete control
[21] = Preemergence, Rate 500 g/ha, scale of 0 to 10 where 0 is no effect and 10 is complete control
[22] = Rate 62 g/ha, Postemergence, scale 0 to 10 (0 no effect, 10 complete control)
[23] = Rate 250 g/ha, Postemergence, scale of 0 to 10 where 0 is no effect and 10 is complete control
[24] = Rate 500 g/ha, Postemergence, scale 0 to 10, 0 no effect, 10 complete control
[25] = Rate 62 g/ha, headed Pre-emergence (flood test species), scale 0 to 10 (0 no effect, 10 complete control)
[26] = Rate 125 g/ha, Pre-emergence, flood test species, scale 0 to 10 where 0 is no effect and 10 is complete control
[27] = Rate 250 g/ha, Pre-emergence, flood-test species, scale 0 to 10, 0 is no effect, 10 is complete control
[28] = Rate 500 g/ha, Pre-emergence, flood test species, scale 0 to 10 (0 no effect, 10 complete control)

## Cc1c(-n2c(=O)on(C(=O)N(c3ccc(F)cc3F)C(C)C)c2=O)ccc2ccccc12 [Compound 337]
[1]; [18]
  Plant response rating, B. signalgrass: 0
[1]; [19]
  B. signalgrass plant response rating: 0
[1]; Preemergence, Rate 125 g/ha
  B. signalgrass plant response rating (0 to 10 scale, 0 is no effect, 10 is complete control): 0
[1]; [20]
  B. signalgrass plant response rating: 0
[1]; [21]
  B. signalgrass plant response rating: 0
[1]; [22]
  B. signalgrass plant response rating: 0
[1]; [23]
  Plant response rating, B. signalgrass: 0
[1]; [24]
  Plant response rating, B. signalgrass: 0
[2]; [18]
  Plant response rating, Velvetleaf: 0
[2]; [19]
  Velvetleaf plant response rating: 0
[2]; Preemergence, Rate 125 g/ha
  Velvetleaf plant response rating (0 to 10 scale): 0
[2]; [20]
  Velvetleaf plant response rating: 0
[2]; [21]
  Velvetleaf plant response rating: 0
[2]; [22]
  Velvetleaf plant response rating: 0
[2]; [24]
  Plant response rating, Velvetleaf: 0
[3]; [25]
  Barnyardgrass plant response rating: 0
[3]; [26]
  Barnyardgrass plant response rating: 0
[3]; [27]
  Barnyardgrass plant response rating: 0
[3]; [28]
  Barnyardgrass plant response rating: 5
[4]; [18]
  Plant response rating, Soybean: 1
[4]; [19]
  Soybean plant response rating: 0
[4]; Preemergence, Rate 125 g/ha
  Soybean plant response rating (0 to 10 scale): 0
[4]; [20]
  Soybean plant response rating: 0
[4]; [21]
  Soybean plant response rating: 0
[4]; [22]
  Soybean plant response rating: 1
[4]; [24]
  Plant response rating, Soybean: 2
[5]; [18]
  Plant response rating, Giant foxtail: 0
[5]; [19]
  Giant foxtail plant response rating: 0
[5]; Preemergence, Rate 125 g/ha
  Giant foxtail plant response rating (0 to 10 scale): 0
[5]; [20]
  Giant foxtail plant response rating: 2
[5]; [21]
  Giant foxtail plant response rating: 9
[5]; [22]
  Giant foxtail plant response rating: 0
[5]; [24]
  Plant response rating, Giant foxtail: 0
[6]; [18]
  Plant response rating, Wild oats: 0
[6]; [19]
  Wild oats plant response rating: 0
[6]; Preemergence, Rate 125 g/ha
  Wild oats plant response rating (0 to 10 scale): 0
[6]; [20]
  Wild oats plant response rating: 0
[6]; [21]
  Wild oats plant response rating: 0
[6]; [22]
  Wild oats plant response rating: 0
[6]; [24]
  Plant response rating, Wild oats: 0
[7]; [18]
  Plant response rating, Crabgrass: 0
[7]; [19]
  Crabgrass plant response rating: 0
[7]; Preemergence, Rate 125 g/ha
  Crabgrass plant response rating (0 to 10 scale): 0
[7]; [20]
  Crabgrass plant response rating: 0
[7]; [21]
  Crabgrass plant response rating: 3
[7]; [22]
  Crabgrass plant response rating: 0
[7]; [24]
  Plant response rating, Crabgrass: 0
[8]; [18]
  Plant response rating, Blackgrass: 0
[8]; [19]
  Blackgrass plant response rating: 0
[8]; Preemergence, Rate 125 g/ha
  Blackgrass plant response rating (0 to 10 scale): 0
[8]; [20]
  Blackgrass plant response rating: 2
[8]; [21]
  Blackgrass plant response rating: 3
[8]; [22]
  Blackgrass plant response rating: 0
[8]; [23]
  Plant response rating, Blackgrass: 0
[8]; [24]
  Plant response rating, Blackgrass: 0
[9]; [18]
  Plant response rating, Bedstraw: 1
[9]; [19]
  Bedstraw plant response rating: 0
[9]; Preemergence, Rate 125 g/ha
  Bedstraw plant response rating (0 to 10 scale): 0
[9]; [20]
  Bedstraw plant response rating: 0
[9]; [21]
  Bedstraw plant response rating: 0
[9]; [22]
  Bedstraw plant response rating: 0
[9]; [23]
  Plant response rating, Bedstraw: 2
[9]; [24]
  Plant response rating, Bedstraw: 4
[10]; [18]
  Plant response rating, Nutsedge: 0
[10]; [19]
  Nutsedge plant response rating: 0
[10]; Preemergence, Rate 125 g/ha
  Nutsedge plant response rating (0 to 10 scale): 0
[10]; [20]
  Nutsedge plant response rating: 0
[10]; [21]
  Nutsedge plant response rating: 0
[10]; [22]
  Nutsedge plant response rating: 0
[10]; [24]
  Plant response rating, Nutsedge: 0
[11]; [18]
  Plant response rating, Corn: 0
[11]; [19]
  Corn plant response rating: 0
[11]; Preemergence, Rate 125 g/ha
  Corn plant response rating (0 to 10 scale): 0
[11]; [20]
  Corn plant response rating: 0
[11]; [21]
  Corn plant response rating: 0
[11]; [22]
  Corn plant response rating: 0
[11]; [24]
  Plant response rating, Corn: 0
[12]; [25]
  S. Flatsedge plant response rating: 0
[12]; [26]
  S. Flatsedge plant response rating: 0
[12]; [27]
  S. Flatsedge plant response rating: 0
[12]; [28]
  S. Flatsedge plant response rating: 0
[13]; [18]
  Plant response rating, Morningglory: 0
[13]; [19]
  Morningglory plant response rating: 0
[13]; Preemergence, Rate 125 g/ha
  Morningglory plant response rating (0 to 10 scale): 0
[13]; [20]
  Morningglory plant response rating: 0
[13]; [21]
  Morningglory plant response rating: 0
[13]; [22]
  Morningglory plant response rating: 0
[13]; [24]
  Plant response rating, Morningglory: 0
[14]; [18]
  Plant response rating, Cocklebur: 0
[14]; [19]
  Cocklebur plant response rating: 0
[14]; Preemergence, Rate 125 g/ha
  Cocklebur plant response rating (0 to 10 scale): 0
[14]; [20]
  Cocklebur plant response rating: 0
[14]; [21]
  Cocklebur plant response rating: 0
[14]; [22]
  Cocklebur plant response rating: 0
[15]; [25]
  Rice plant response rating: 0
[15]; [26]
  Rice plant response rating: 0
[15]; [27]
  Rice plant response rating: 0
[15]; [28]
  Rice plant response rating: 0
[16]; [25]
  Ducksalad plant response rating: 0
[16]; [26]
  Ducksalad plant response rating: 0
[16]; [27]
  Ducksalad plant response rating: 0
[16]; [28]
  Ducksalad plant response rating: 0
[17]; [18]
  Plant response rating, Wheat: 0
[17]; [19]
  Wheat plant response rating: 0
[17]; Preemergence, Rate 125 g/ha
  Wheat plant response rating (0 to 10 scale): 0
[17]; [20]
  Wheat plant response rating: 0
[17]; [21]
  Wheat plant response rating: 0
[17]; [22]
  Wheat plant response rating: 0
[17]; [24]
  Plant response rating, Wheat: 0

— patent US6737383B1, “Herbicidal oxadiazolidines” (priority 1999, dated 2004)
